This assay relates to UV erythema. Put plainly: UV Erythema test. Type of assay: in vivo, guinea pigs. To be noted: topical solution, erythema estimated four hours after application. Here is the method: The test is carried out on female albino guinea pigs, approx. 150 g wt. The animals are shaved on both flanks using a Braun micro razor, without causing skin irritation. For each test substance five animals are subjected to a defined intensity of UV radiation for 10 seconds on each of four areas of skin (10 mm diameter). Immediately afterwards 50 microliters of a solution of the test substance in ethanol/propylene glycol/dimethylacetamide (19:19:2 v/v) is applied to two of the irradiated areas on each animal and 50 microliters of the solvent mixture to the other two as controls. Four hours after application, the degree of erythema is estimated visually.

Structures are written as SMILES.

`COc1ccc2c(c1)c(CC(=O)O)c(C)n2C(=O)c1ccc(Cl)cc1` [indomethacin]: the “effective concentration in UV-erythema test” value is reported as 2.5%.

Values taken from US5116816A, “Cyclosporin peptolides having an α-hydroxycarboxylic acid at position 8” (Sandoz Ltd., priority 1987, dated 1992).
